This note sets out measurements from patent publication US4127665A, “Thienohydantoin derivatives” (Pfizer Inc., priority 1978, dated 1978).

Like-named read-outs stand apart in the source and are kept apart here.

One test deals with T1, aldose reductase (Bos taurus, UniProt P16116).
T1 construct: partially purified aldose reductase enzyme obtained from calf lens; from tissue; host or cells: calf lens
The test is described as follows: Inhibition of aldose reductase enzyme activity (partially purified enzyme from calf lens). In kind it is biochemical. The settings on record: for inhibition at 100 µM: 10^-4 M; for inhibition at 10 µM: 10^-5 M; for inhibition at 1 µM: 10^-6 M; for inhibition at 1 µM / inhibition at 0.1 µM: low negative values not significant; for inhibition at 0.1 µM: 10^-7 M. How it is done:
The spiro-thienohydantoins of Examples 1 through 5 were tested for their ability to reduce or inhibit aldose reductase enzyme activity, following the procedure described in U.S. Pat. No. 3,821,383 and based on the procedure of Hayman et. al., Journal of Biological Chemistry, 240, 877 (1965). The substrate employed was partially purified aldose reductase enzyme obtained from calf lens. The results obtained with each compound at a concentration of 10^-4 M are expressed as percent inhibition of enzyme activity.
The test of Example 6 was repeated at different concentrations of the compound under test, namely 10^-4 M, 10^-5 M, 10^-6 M, and 10^-7 M.
In this test, values below 20 are not always experimentally and statistically significant.

Test [1] concerns sorbitol accumulation in the sciatic nerve of streptozotocinized (i.e., diabetic) rats. Description: Inhibition of sorbitol accumulation in the sciatic nerve of streptozotocinized (diabetic) rats. The format is in vivo, rat. As to conditions: measured 27 hours after induction, vs untreated. How it is done: The compounds of Examples 4 and 5 were tested for their ability to reduce or inhibit sorbitol accumulation in the sciatic nerve of streptozotocinized (i.e., diabetic) rats by the procedure essentially described in U.S. Pat. No. 3,821,383. In the present study, the amount of sorbitol accumulation in the sciatic nerves was measured 27 hours after induction of diabetes. The compounds were administered orally at the dose levels indicated at 4, 8 and 24 hours following the administration of streptozotocin. The results obtained in this manner are presented below in terms of percent inhibition (%) afforded by the test compound as compared to the case where no compound was administered (i.e., the untreated animal where sorbitol levels normally rise from approximately 50-100 mM/g. tissue to as high as 400 mM/g. tissue in the 27-hour test period): […]

Where [2] appears, read: Example 6 test, calf lens enzyme, read-out: % Inhibition at 10^-4 M.
Setting [3] is: Example 7 repeat test, values below 20 not always significant, read-out: % Inhibition.
[4] abbreviates: Example 7 repeat test, values below 20 not always significant.

The inhibition is the relative decrease from the control value, in per cent. As to `O=C1NC(=O)C2(CCc3c(Cl)sc(Cl)c32)N1` (stereo not shown) [Example 1], on aldose reductase (setting [2]), the inhibition at 100 µM stood at 83%. Moreover, at aldose reductase (setting [3]), the inhibition at 100 µM was 88%. Besides, at aldose reductase (setting [4]), the inhibition at 10 µM was found to be 67%, the inhibition at 1 µM was 12% and the inhibition at 0.1 µM is -7%.
In the same order, the values of `O=C1NC(=O)C2(CCc3c2csc3Cl)N1` (stereo not shown) [Example 2] are 95%, 35%, 67%, -12% and 21%.
On to `O=C1NC(=O)C2(CCc3cscc32)N1` (stereo not shown) [Example 3], for which, at aldose reductase (setting [2]), the inhibition at 100 µM worked out at 46%.
Take `O=C1NC(=O)C2(CCc3sc(Cl)cc32)N1` (stereo not shown) [Example 4]: the inhibition at 100 µM on aldose reductase (setting [2]) worked out at 80%. For the same compound, the inhibition at 100 µM at aldose reductase (setting [3]) was determined as 75%. Further, on aldose reductase (setting [4]), the inhibition at 10 µM was determined as 55%, the inhibition at 1 µM was 18% and the inhibition at 0.1 µM was found to be 15%. Moreover, the “% Inhibition (sorbitol accumulation in sciatic nerve)” value in test [1] (2.5 mg/kg orally at 4, 8 and 24 hours after streptozotocin) is 20%.
For the compound `O=C1NC(=O)C2(CCCc3sccc32)N1` (stereo not shown) [Example 5, 6,7-dihydro-spiro[benzo(b)thiophene-4(5H),4'-imidazolidine]-2',5'-dione], at aldose reductase (setting [2]), the inhibition at 100 µM was found to be 52%. Also, the “% Inhibition (sorbitol accumulation in sciatic nerve)” value in test [1] (25 mg/kg orally at 4, 8 and 24 hours after streptozotocin) was found to be 56%.
